For data set [1], the system named is human lung cancer cell line A549, cervical cancer cell line Hela, colorectal cancer cell line HT-29. The data set can be described thus: Cancer cell line growth inhibition test (WST-8 cell viability, 72 h). Format: cell-based. The following applies: for Cancer Cell line growth inhibition test: relative evaluation compared to doxorubicin. As to the method: A human lung cancer cell line A549, a cervical cancer cell line Hela, and a colorectal cancer cell line HT-29 were adopted from the Korea Cell Line Bank (KCLB, Seoul, Korea) and cultured in a culture medium.
In a humidified cell culture incubator containing 5% CO2; at 37° C. using a DMEM and a 10% culture flask, fetal bovine serum (FBS), 0.1 mM MEM non-essential amino acid (NEAA), 2 mM L-glutamine, and 1% penicillin-streptomycin were trypsinized every 2 to 3 days according to the instructions provided by the KCLB to subculture the cells. The culture was cultured until reached 80% to 90% of confluence, and the cells were successively transferred to a culture flask for a cancer cell line growth inhibition test.
A cancer cell line, a human lung cancer cell line A549, a cervical cancer cell line Hela, and a colorectal cancer cell line HT-29 to be tested were seeded in a 96-well plate at about 10,000 cells per well.
After incubation, the medium was removed and the cell viability in each well was measured using a WST-8 cell viability assay kit (Quanti-Max™, BIOMAX) and according to a procedure instructed by a manufacturer.
The analysis used a principle that dehydrogenase of living cells decomposed tetrazolium salt to generate formazan, and through this, the living cells were quantitatively evaluated.
Reduced formazan salt was soluble in a cell culture medium and an amount of formazan was directly proportional to the number of living cells (Slater, T. et al. (1963) Biochem. Biophys. Acta 77:383. van de Loosdrecht, A. A., et al. J. Immunol. Methods 174: 311-320, 1994. Alley, M. C., et al. Cancer Res. 48: 589-601, 1988.).
On the technique in general: Tetrazolium dyes change colour on reduction, which living cells bring about.

In data set [2] the test system is normal lung cell line MRC-5 and normal colon CCD-18Co cell line. Briefly: Toxicity test in normal cell line (WST-8 cell viability, 72 h). The data set is classed as cell-based. The settings on record: for Normal cell line toxicity test: relative evaluation compared to doxorubicin.

Entries after “also recorded” stand apart in the source; their conditions may differ.

For the substance “Fenbendazole-1,2,3,4-Tetra-β-D-fructose [FB-2]”, the “Cancer Cell line growth inhibition test” value in data set [1] was “AA (AA represents equal (1 to 2 times))”.
The same measure, in the same setting: the result for “Fenbendazole-1,2,3,4-Tetra-β-D-glucose [FB-1]” reads “AA (AA represents equal (1 to 2 times))”.
Regarding “albendazole-1,2,3,4-Tetra-β-D-fructose [AL-2]”, in data set [1], the “Cancer Cell line growth inhibition test” value is recorded as “AA (AA represents equal (1 to 2 times))”. Moreover, the “Normal cell line toxicity test” value in data set [2] is “AA (AA represents little toxicity ( 1/10 times))”.
For “albendazole-1,2,3,4-Tetra-β-D-glucose [AL-1]”, the “cancer cell line growth inhibition efficiency” value in data set [1] (FIG. 1, A549, Hela, HT-29, 0-100 μM, 72 hours, versus albendazole, fenbendazole, doxorubicin) is “most excellent; also recorded: very excellent”. Also, the “Cancer Cell line growth inhibition test” value in data set [1] is recorded as “AA (AA represents equal (1 to 2 times))”. The “toxicity to the normal cell lines” value in data set [2] (FIG. 2, MRC-5, CCD-18Co, 0-100 μM, 72 hours, compared to albendazole, fenbendazole, and doxorubicin) is given as “very weak”. The “Normal cell line toxicity test” value in data set [2] is recorded as “AA (AA represents little toxicity ( 1/10 times))”.

Values taken from patent US11667661B2, “Benzimidazole derivatives, preparation method thereof and use thereof as anti-cancer agent comprising the same” (BIOMETRIX TECHNOLOGY INC, priority 2020, dated 2023).
